{"source": "paper PMC5665932", "about": "“A novel peptide that improves metabolic parameters without adverse central nervous system effects” (Scientific Reports, 2017)", "key": {"UCP1": {"system": "UCP1", "test": "UCP1 expression in 3T3-L1 differentiated adipocytes (Western blot)", "format": "cell-based", "details": "for expression of UCP1 in 3T3-L1 adipose cells: 24 h treatment", "experimental": "3T3-L1 pre-adipocytes (American Type Culture Collection, Rockville, MD, USA) were cultured in complete medium comprising of DMEM (Dulbecco’s Modified Eagle Medium), containing 10% fetal bovine serum (Life Technologies, Carlsbad, CA, USA), 0.11 mg/mL pyruvate, 0.025 g/L penicillin (Sigma-Aldrich, Saint Louis, MO, USA) and 0.1 g/L streptomycin (Life Technologies, Carlsbad, CA, USA) at 37 °C and 5% CO2. For the experiments analyzing UCP1 expression, 3T3-L1 cells were seeded in 12-well plates at a confluence of 10 × 10^4 cells/mL/well. One day later, cells were differentiated using normal culture medium supplemented with 500 μM isobutylmethylxanthine (Sigma, St. Louis, MO, USA), 1 μM dexamethasone (Sigma, St. Louis, MO, USA), and 0.85 μg/mL bovine insulin (Sigma, St. Louis, MO, USA). After three days, the differentiation medium was changed to normal culture medium supplemented with 0.85 μg/mL bovine insulin. The fresh medium was renewed every 2 days. After 12 days of differentiation, cells were exposed for 24 h with either 5 µM rosiglitazone (RSG, Sigma, St. Louis, MO, USA), HP or Pep19 at different concentrations or with vehicle (normal culture medium plus protease inhibitor cocktail (Roche, Germany). Subsequent experiments were performed after preincubation for 2 min with and in the absence of either 5 µM rosiglitazone, 1 µM […], 1 µM AM251, 1 µM HP or vehicle (normal culture medium plus protease inhibitor cocktail (Roche, Germany) with subsequent addition of 1 µM Pep19 in medium. For Western-blot assays, cells were washed twice with ice-cold PBS, the supernatant was removed, and cells were lysed with 40 µL Laemmli buffer, transfered to tubes, sonicated and heated 95 °C during 5 min. Samples were kept at −20 °C till use. Before using, samples were thawed on ice, centrifuged, and proteins were separated on a 12% SDS-PAGE, followed by transfer to PVDF membranes (Merck Millipore, Darmstadt, Germany). […] Bands were visualized with Super-Signal West Pico Chemiluminescent substrate (Thermo Scientific) and quantified using ImageJ 1.49."}, "c-Fos": {"system": "c-Fos", "test": "Mice brain c-Fos protein immunohistochemistry", "format": "in vivo", "details": "1 mg/kg administrated orally, two hours post administration, C57BL/6J mice, vs vehicle (water), n = 3/group", "experimental": "Mice C57BL/6J (25 ± 2 g; n = 3 per group) were assigned randomly to receive gavage (v.o.) of either vehicle (water), or 1 mg/kg body weight HP or 1 mg/kg Pep19. All solutions were prepared minutes before use. Two hours post administrations mice were deeply anaesthetized with ketamine and xylazine (i.p.; […], respectively) and perfused transcardially with heparinised saline (5000 UI/kg) in phosphate buffer (PB 0.1 M, pH 7.3) followed by 4% paraformaldehyde in PB 0.1 M. The brains were post fixed and kept in 30% sucrose in 0.1 M PB to cryoprotect the tissue. […]\nThe regions of interest were identified based on a stereotaxic atlas[45]: arcuate hypothalamic nucleus (Arc), ventromedial hypothalamic nucleus (VMN), periaqueductal grey (PAG), orbitofrontal cortex (VO), accumbens nucleus (Acb). The corresponding images were captured using a Nikon Eclipse E800, camera DC-F1 with Nis Element program. cFos positive cells per section were counted manually using ImageJ (NIH/USA). Results are are expressed as the means ± standard error of the mean (SEM) of c-Fos immunoreactive cells per section in each brain area (5 sections/brain/structure). […] Data were statistically analyzed with GraphPad Prism software (GraphPad Software Inc, San Diego, CA, USA)."}, "DIO Wistar rats [1]": {"system": "DIO Wistar rats", "test": "Diet-induced obesity model: body weight, food intake, adipose tissue masses, adiposity index", "format": "in vivo", "details": "oral by gavage, 100 µg/Kg, mean ± SEM", "experimental": "(§1) For the diet-induced obesity (DIO) model, male Wistar rats received instead of water a 20% sucrose solution for 13 consecutive weeks. All animals including controls received food ad libitum. Pep19 was administrated orally by gavages. After 13 weeks of treatment all rats were sacrificed by decapitation (after overnight fasting). Blood from the trunk was collected into tubes without anticoagulants and immediately centrifuged (3000 x g for 15 min at 4 °C), and serum was stored at −20 °C. Blood serum was used for all biochemical determinations. The adipose tissues masses were used to calculate the adiposity index (the percentage of the sum of all white adipose tissue pads in relation to total body weight)."}, "DIO Wistar rats [2]": {"system": "DIO Wistar rats", "test": "Diet-induced obesity model: serum/blood biochemical determinations", "format": "in vivo", "details": "oral by gavage, 100 µg/Kg, mean ± SEM", "experimental": "as §1\nSerum cholesterol and triglycerides were quantified enzymatically using commercial kits from Labtest Diagnóstica (Triglicerides Liquiform andLiquiform, Lagoa Santa, MG, Brazil). Insulin levels were determined using specific rat radioimmunoassay kits (Millipore Corporation, Billerica, MA, USA). Blood glucose concentration was measured by a glucometer (Advantage, Roche Diagnostics Corporation, Indianapolis, USA)."}, "Male Wistar rats": {"system": "Male Wistar rats", "test": "Forced swim test", "format": "in vivo", "details": "first 5 min of the swim test, n = 6/group (Pep19), n = 8–10/group (rimonabant)", "experimental": "The forced swim test was based on previous designs. Male Wistar rats were placed in a cylindrical plexiglass tank (50 cm high and 30 cm diameter) filled with water (19 °C) up to a level of 25 cm from the bottom. The animal’s behavior during the first 5 min of the swim test was scored by a trained observer and the following measures were taken: (1) time spent swimming, defined as movements of all four limbs, swimming around the tank or diving and (2) time spent floating, defined as the time the animal remained immobile with only occasional slight movements to keep the body balanced and the nose above the water."}, "C57BL/6J mice": {"system": "C57BL/6J mice", "test": "Tetrad cannabinoid tests (catalepsy, tail temperature, locomotor activity, hot plate)", "format": "in vivo", "details": "n = 6/group", "experimental": "C57BL/6J mice were treated i.p. with Pep19 (0.1 or 1 mg/kg), the CB1R agonist WIN55,212-2 (5 mg/kg) or vehicle (n = 6 per group) and evaluated in the tetrad cannabinoid tests. Another group of animals received Pep19 (0.1 or 1 mg/kg) or saline i.p. for 10 days, once a day. In the last day of treatment the animals were subjected to the tetrad cannabinoid tests 30 minutes after the i.p. administration. The CB1 agonist WIN55,212-2 (5 mg/kg) was administrated i.p. 30 minutes before the experiments as a positive control (n = 6 per group).\nIt was assayed by the bar test[40], 30 min after drug administration. Briefly, each mouse was placed on a bar oriented parallel to and approximately 4 cm above the bench surface. Cataleptic behavior was defined as the time the animal remained motionless holding on to the bar; cutoff = 300 s[41].\nIt was determined by using a thermal probe (Thermocom®, Nashua, NH 03062, EUA) positioned 50 cm of the animal. The mean of five pictures of five different tail regions was compared between a basal evaluation and another observation 35 min after drug administration.\nIt was determined by an open field test, in which a mouse was placed in a circular cage (40 cm diameter), 37 min after drug administration. The distance traveled by the animal was recorded for 10 min by the software ANY-MAZE (Stoelting).\nThe mouse was placed on a heated plate at 56 °C. An experimenter measured the time it took for the mouse to lick the paws or jump off of the hot plate; cutoff = 30 s[42]. The variation between a basal evaluation and another one taken 45 min after drug administration was defined as the result."}}}
{"compound": "CN(CCOc1ccc(CC2SC(=O)NC2=O)cc1)c1ccccn1", "note": "(stereo not shown) [RSG, Rosiglitazone]", "values": [{"measurement": "expression of UCP1 in 3T3-L1 adipose cells", "setting": "UCP1; 5 µM, positive control", "value": "increased the expression of UCP1"}]}
{"compound": "PVNFKFLSH [HP, Hemopressin, …, inverse agonist of cannabinoid type 1 receptors]", "values": [{"measurement": "expression of UCP1 in 3T3-L1 adipose cells", "setting": "UCP1; 0.1–10 µM, GAPDH loading control", "value": "increased the expression of UCP1"}, {"measurement": "number of cFos positive cells in brain areas (Arc, VMN, PAG, VO, Acb)", "setting": "c-Fos", "value": "increased the number of cFos positive cells in Arc, VMN and PAG"}]}
{"compound": "Cc1c(C(=O)NN2CCCCC2)nn(-c2ccc(Cl)cc2Cl)c1-c1ccc(Cl)cc1", "note": "[Rimonabant]", "values": [{"measurement": "Body weight (% of control day zero)", "setting": "DIO Wistar rats [1]", "value": "111 ± 1.0 (n = 10) % of control day zero"}, {"measurement": "Gonadal Adipose Tissue weight", "setting": "DIO Wistar rats [1]", "value": "1.75 ± 0.1 (n = 10) g"}, {"measurement": "Mesenteric Adipose Tissue weight", "setting": "DIO Wistar rats [1]", "value": "0.86 ± 0.1 (n = 9) g"}, {"measurement": "Retroperitoneal Adipose Tissue weight", "setting": "DIO Wistar rats [1]", "value": "2.10 ± 0.1 (n = 10) g"}, {"measurement": "Adiposity Index (total/100 g)", "setting": "DIO Wistar rats [1]; percentage of the sum of all white adipose tissue pads in relation to total body weight", "value": "5.85 ± 0.2 (n = 9) total/100 g"}, {"measurement": "Glucose level", "setting": "DIO Wistar rats [2]; glucometer", "value": "118.3 ± 4.2(n = 9) mg/dl"}, {"measurement": "Cholesterol (% of control day zero)", "setting": "DIO Wistar rats [2]; serum", "value": "98.51 ± 5.8 (n = 9) % of control day zero"}, {"measurement": "Triacylglycerol (% of control day zero)", "setting": "DIO Wistar rats [2]; serum", "value": "112 ± 7.7 (n = 10) % of control day zero"}, {"measurement": "Insulin", "setting": "DIO Wistar rats [2]; serum, radioimmunoassay", "value": "2.71 ± 0.8 (n = 5) ng/mL"}, {"measurement": "forced swim test: time spent swimming and time spent floating", "setting": "Male Wistar rats", "value": "affected both time spent swimming (empty bars) and time spent floating"}]}
{"compound": "Cc1c(C(=O)NN2CCCCC2)nn(-c2ccc(Cl)cc2Cl)c1-c1ccc(I)cc1", "note": "[AM251]", "values": [{"measurement": "effect on UCP1 activation by Pep19", "setting": "UCP1; 1 µM, preincubation 2 min, then Pep19 1 µM for 24 h, 3T3-L1 adipocyte cells", "value": "prevented UCP1 activation by Pep19"}]}
{"compound": "Cc1c(C(=O)c2cccc3ccccc23)c2cccc3c2n1[C@H](CN1CCOCC1)CO3", "note": "[WIN55,212–2]", "values": [{"measurement": "cannabinoid tetrad, positive control of the chronic experiment", "setting": "C57BL/6J mice; 5 mg/kg i.p. 30 minutes before the experiments, P<0.05", "value": "affected all parameters evaluated"}, {"measurement": "cannabinoid tetrad (catalepsy, hot plate, locomotor activity, tail temperature)", "setting": "C57BL/6J mice; 5 mg/kg i.p., positive control, p < 0.05", "value": "affected all the parameters evaluated"}]}
